Laboratory results taken from patent publication US20060003965A1, “N-acetyl-d-glucosamine (nag) supplemented food products and beverages” (priority 2002, published 2006).

Legend:
[1] = pH of supplemented tea before and after heating; assay type: physicochemical; details: tea with 5.7 g per quart; for Initial pH: before heating
Method: Tea made from Lipton® instant tea mix was used as the basis for incorporation of samples. To prepare the tea, the following recipe was used: 2.69 g instant tea, 5.7 g GLCN or NAG (where applicable) then add water to one quart. Tea was prepared for sensory testing as follows:
Batch 2. Tea+glucosamine (pH 5-6) [GLCN from fungal biomass, see batch 2 Example 1]
Batch 3. Tea+NAG (pH 5-6) (N-Acetyl-D-glucosamine, Catalog # A-102-2, Ferro Pfanstiehl, Waukegan, Ill.)
Batch 4. Tea+glucosamine (pH 5-6) heated to 71° C. for 20 minutes
Batch 5. Tea+glucosamine heated (pH 5-6) to 90° C. for 20 seconds, flash cooled in ice water bath
Batch 6. Tea+glucosamine (pH 5-6) boiled on stove for 5 minutes, flash cooled in ice water bath
Batch 7. Tea+NAG (pH 5-6) heated to 71° C. for 20 minutes
Batch 8. Tea+NAG (pH 5-6) heated to 90° C. for 20 seconds, flash cooled in ice water bath
Batch 9. Tea+NAG (pH 5-6) boiled on stove for 5 minutes, flash cooled in ice water bath

[2] = Stability in simulated gastric fluid (SGF); assay type: in vitro ADME; details: 1 g in SGF with pepsin, pH about 1.2, 37° C., sampled at 0, 5, 15 and 60 minutes
Method: To test the availability of NAG in the stomach, a simulated stomach environment was constructed, and a known concentration of NAG was added to simulated gastric fluid (SGF) and maintained at conditions simulating the stomach. If NAG is degraded or derivatized in the stomach, the NAG concentration will decrease. If the concentration of NAG remains the same, it is likely that the NAG is available to the body.
SGF was prepared based on a 1995 United States Pharmacopoeia (USP) monograph. An artificial stomach environment was simulated according to generally accepted practice (see Consumers Union website, 101 Truman Ave., Yonkers, N.Y. 10703-1057). To prepare simulated gastric fluid, 2.0 g of NaCl and 3.2 g of pepsin were dissolved in 7.0 mL of hydrochloric acid (concentrated) and sufficient water to make a 1000 mL solution.
NAG samples were prepared as follows. […]
Before introduction of samples into the SGF, a sample of the SGF was analyzed as a blank, to determine the baseline. Upon addition of the NAG to the SGF, a sample was immediately analyzed to determine the concentration of NAG at time zero. After introduction of NAG into the SGF, samples were pulled and analyzed at 5 minutes, 15 minutes, and 60 minutes to provide a profile of NAG concentration in the simulated stomach, and analyzed for the concentration of NAG.

[3] = NAG recovery following heating, acid extraction method, HPLC; assay type: physicochemical; details: all foods and beverages of Table 14
Method: Food samples were homogenized prior to analysis. Where possible, samples were frozen or dried and ground. Baked goods were crumbled and mixed to produce a homogeneous material. Suitable blanks (samples with no added NAG) of each food type were analyzed to assess interferences. Mass changes between unheated ingredient mixtures and baked final products were tracked to permit accurate recovery calculations.
A food or beverage sample as described in the preceding examples containing 5 to 20 mg of N-acetylglucosamine (NAG) was dispersed in 25 g of 0.1 N HCl in a 50-mL polypropylene centrifuge tube and capped tightly. The sample was mixed for 30 seconds using a vortex mixer, then placed in a water bath at 37° C. The sample was removed from the water bath at 15-minute intervals and mixed for 30 seconds on a vortex mixer and then returned to the water bath. This cycle was repeated until the sample had been in the water bath for one hour. After heating, the sample was mixed for 30 seconds on a vortex mixer, then centrifuged for 10 minutes to separate the liquid and solid phases. Fats, oils or lipids in the sample formed a third layer at the top of the tube. […]
NAG recovery was determined using high performance liquid chromatography (HPLC) using a combination of refractive index and UV (195 nm) detection. […]

[4] = heated to 71° C. for 20 minutes
[5] = heated to 90° C. for 20 seconds

Initial pH [1]	pH after heating ([1]; boiled 5 minutes)	pH after heating [1, 4]	pH after heating [1, 5]	Loss of NAG in simulated gastric fluid [2]	amount of NAG recovered following heating, range over Table 14 samples [3]	SMILES
5.09	4.87	5.13	5.00	–	–	Cl.N[C@H]1C(O)O[C@H](CO)[C@@H](O)[C@@H]1O (stereo partly shown) [Fungal GLCN, glucosamine hydrochloride, reference compound]
5.46	5.22	5.40	5.31	no significant loss of NAG	77%-100%	CC(=O)N[C@H]1C(O)O[C@H](CO)[C@@H](O)[C@@H]1O (stereo partly drawn) [NAG, N-Acetyl-D-glucosamine]
